Data from PMC9518264, “Design and synthesis of novel quinazolinone-based derivatives as EGFR inhibitors with antitumor activity” (Journal of Enzyme Inhibition and Medicinal Chemistry, 2022).

Legend:
[1] = system: K-562; test: cells; format: cell-based; conditions: Homo sapiens, K562; K-562; 10 μM; supplementary table 3a-g; read-out: growth inhibition % (GI %)
[2] = system: SR; test: cells; format: cell-based; conditions: Homo sapiens, 10 μM, supplementary table 3a-g, read-out: growth inhibition % (GI %)
[3] = system: HOP-92; test: cells; format: cell-based; conditions: Homo sapiens; HOP-92; 10 μM; supplementary table 3a-g; read-out: growth inhibition % (GI %)
[4] = system: NCI-H226; test: cells; format: cell-based; conditions: Homo sapiens; NCI-H226; 10 μM; supplementary table 3a-g; read-out: growth inhibition % (GI %)
[5] = system: RXF 393; test: cells; format: cell-based; conditions: Homo sapiens; RXF 393; 10 μM; supplementary table 3a-g; read-out: growth inhibition % (GI %)
[6] = system: UO-31; test: cells; format: cell-based; conditions: Homo sapiens; UO-31; 10 μM; supplementary table 3a-g; read-out: growth inhibition % (GI %)
[7] = system: panel of 60 tumour cell lines; test: NCI 60 cell line antiproliferative screening (SRB), whole panel or subpanels (means, ranges, words); format: cell-based, human; conditions: Homo sapiens, 60 cell, mean over the cell line panel; 10 μM; supplementary table 3a-g; read-out: Mean inhibition
[8] = system: caspase-3; test: Caspase-3 activation (ELISA) in breast HS 578T cancer cell line; format: cell-based, human
Protocol: Apoptosis is triggered by the activation of caspases, particularly caspase-3, which is an […] caspase responsible for apoptosis. Therefore, the induction of apoptosis by compound 6d was examined by the evaluation of caspase-3 activation in breast HS 578T cancer cell line. The effect of erlotinib as well as untreated cell line was used as positive and negative control, respectively. […] . […]
incubated for 15 minutes in the dark at room temperature. FacsCalibur was used to assess cell fluorescence after incubation (BD Biosciences, USA). The results were represented using dot-plot graphs.
1.1.5. Caspase-3 enzyme assay
The level of the apoptotic marker caspase-3 was measured using Invitrogen ELISA Kit Catalog # KHO1091. The procedure of the used kit was performed according to the manufacturer’s instructions. Let all components to reach room temperature before use. Gently combine all liquid reagents prior to use. Add 100 μL of the standard diluent buffer to the zero standard wells. Add 100 μL of standards and controls or diluted samples to the appropriate microtiter wells. Incubate for 2 h at room temperature. Pipette 100 μL of Caspase-3 (Active) detection antibody solution into each well. […] Read the absorbance of each well at 450 nm. Read the plate within 2 h after adding the stop solution. […] Read the concentrations for unknown samples and controls from the standard curve.

Row | Compound | inhibition at 10 µM [1] [%] | inhibition at 10 µM [2] [%] | inhibition at 10 µM [3] [%] | inhibition at 10 µM [4] [%] | inhibition at 10 µM [5] [%] | inhibition at 10 µM [6] [%] | inhibition at 10 µM [7] [%] | melting point [°C] | increase of caspase-3 level compared to negative control [8] [fold]
1 | COc1ccc(Oc2ccc(C=NNc3nc4ccccc4c(=O)n3-c3ccccc3)cc2)cc1 [3c, 2–(2-(4–(4-methoxyphenoxy)benzylidene)hydrazinyl)-3-phenylquinazolin-4(3H)-one] | 24.8 | 16 | < 15 | 15.2 | < 15 | 21.6 | 1.6 | 185 to 188 | –
2 | O=c1c2ccccc2nc(NN=Cc2ccc(Oc3ccc(Cl)cc3)cc2)n1-c1ccc(Cl)cc1 [3d, 2–(2-(4–(4-chlorophenoxy)benzylidene)hydrazinyl)-3–(4-chlorophenyl)quinazolin-4(3H)-one] | < 15 | < 15 | < 15 | < 15 | – | < 15 | < 0 | 212 to 214 | –
3 | O=c1c2ccccc2nc(NN=Cc2ccc(N3CCOCC3)cc2)n1-c1ccccc1 [3f, 2–(2-(4-morpholinobenzylidene)hydrazinyl)-3-phenylquinazolin-4(3H)-one] | < 15 | < 15 | < 15 | < 15 | < 15 | < 15 | < 0 | 242 to 244 | –
4 | CN1CCN(c2ccc(C=NNc3nc4ccccc4c(=O)n3-c3ccccc3)cc2)CC1 [3g, 2–(2-(4–(4-methylpiperazin-1-yl)benzylidene)hydrazinyl)-3-phenylquinazolin-4(3H)-one] | < 15 | < 15 | 16 | < 15 | 25.1 | 21 | < 0 | 208 to 210 | –
5 | O=c1c2ccccc2nc(NN=Cc2ccc(N3CCCCC3)cc2)n1-c1ccccc1 [3e, 3-phenyl-2–(2-(4-(piperidin-1-yl)benzylidene)hydrazinyl)quinazolin-4(3H)-one] | < 15 | < 15 | < 15 | < 15 | < 15 | < 15 | < 0 | 160 to 166 | –
6 | O=c1c2ccccc2nc(NN=Cc2ccc(Oc3ccc(Br)cc3)cc2)n1-c1ccccc1 [3b, 2–(2-(4–(4-bromophenoxy)benzylidene)hydrazinyl)-3-phenylquinazolin-4(3H)-one] | < 15 | < 15 | – | – | – | < 15 | < 0 | 198 to 200 | –
7 | C#Cc1cccc(Nc2ncnc3cc(OCCOC)c(OCCOC)cc23)c1 [Erlotinib, erlotinib, reference compound] | – | – | – | – | – | – | – | – | 8.78
8 | O=c1c2ccccc2nc(NN=Cc2ccc(Oc3ccc(Cl)cc3)cc2)n1-c1ccccc1 [3a, 2–(2-(4–(4-chlorophenoxy)benzylidene)hydrazinyl)-3-phenylquinazolin-4(3H)-one] | < 15 | < 15 | < 15 | < 15 | < 15 | < 15 | < 0 | 158 to 164 | –
